# In patent US20250302788A1, “COMPOSITION COMPRISING CREATINE FOR USE IN THE TREATMENT OF POST VIRAL FATIGUE SYNDROME” (Alzchem Trostberg GmbH, priority 2022, published 2025):
# Legend:
# [1] = both, human, in vivo, 3 months
# Post-COVID patients = assay: MFI-20 fatigue test, Example 2; format: in vivo, human; conditions: plus breathing exercise
# Description: The patient-reported outcomes for COVID-19-related signs and symptoms (e.g. headache, concentrating difficulties, anosmia, ageusia) were evaluated with VAS scale. Fatigue, comprising the conditions of the group general fatigue, physical fatigue, metal fatigue, reduced activity, and reduced motivation, was evaluated with a multidimensional fatigue inventory test (MFI-20 test, Smets E. M. et al., J. Psychosom. Res. 1995, 39 (3), 315).
compound,measurement,setting,value
"CN(CC(=O)O)C(=N)N.O [Creatine + Breathing Exercise, creatine monohydrate]","Cohen's effect size (d) for creatine increment, right frontal grey matter",[1],1.76
same,"Cohen's effect size (d) for creatine increment, vastus medialis muscle",[1],0.77
same,General fatigue (MFI-20 score),Post-COVID patients; 3 months,12.3
same,Mental fatigue (MFI-20 score),Post-COVID patients; 3 months,11.5
same,Physical fatigue (MFI-20 score),Post-COVID patients; 3 months,12.2
same,Reduced activity (MFI-20 score),Post-COVID patients; 3 months,12.8
same,Reduced motivation (MFI-20 score),Post-COVID patients; 3 months,12.8
same,General fatigue (MFI-20 score),Post-COVID patients; Baseline,11.5
same,Mental fatigue (MFI-20 score),Post-COVID patients; Baseline,11.8
same,Physical fatigue (MFI-20 score),Post-COVID patients; Baseline,12.3
same,Reduced activity (MFI-20 score),Post-COVID patients; Baseline,12.5
same,Reduced motivation (MFI-20 score),Post-COVID patients; Baseline,13.5
